Values after ≈ are worked out from the molar mass of the structure shown.
Tests used:
Format in all cases: functional
Pseudomonas aeruginosa = assay: Antibacterial activity against Pseudomonas aeruginosa CR 56 after overnight incubation by […] method
Escherichia coli = assay: Antibacterial activity against Escherichia coli JM 109 after overnight incubation by […] method
Staphylococcus aureus [1] = assay: Antibacterial activity against methicillin-resistant Staphylococcus aureus N315 after overnight incubation by […] method
Bacillus subtilis = assay: Antibacterial activity against Bacillus subtilis ATCC 6633 after overnight incubation by […] method
Staphylococcus aureus [2] = assay: Antibacterial activity against Staphylococcus aureus ATCC 25923 after overnight incubation by […] method
Candida albicans = assay: Antifungal activity against Candida albicans ATCC 76615 after overnight incubation by […] method
Bacillus = assay: Antibacterial activity against Bacillus proteus after overnight incubation by […] method
Cryptococcus neoformans = assay: Antifungal activity against Cryptococcus neoformans after overnight incubation by […] method
Candida = assay: Antifungal activity against Candida mycoderma after overnight incubation by […] method
Aspergillus flavus = assay: Antifungal activity against Aspergillus flavus 3905 after overnight incubation by […] method
Saccharomyces cerevisiae = assay: Antifungal activity against Saccharomyces cerevisiae CGMCC2.145 after overnight incubation by […] method

`Cn1c(=O)n(CCOC(=O)CNC(=O)c2cccc(F)c2)c(=O)c2ccccc21` was tested, and the MIC (Pseudomonas aeruginosa) was 128 µg/mL (≈ 320 µM), the MIC (Escherichia coli) was 128 µg/mL (≈ 320 µM) and the MIC (Staphylococcus aureus [1]) was 32 µg/mL (≈ 80.1 µM). It also gave an MIC (Bacillus subtilis) of 256 µg/mL (≈ 641 µM), an MIC (Staphylococcus aureus [2]) of 128 µg/mL (≈ 320 µM) and an MIC (Candida albicans) of 16 µg/mL (≈ 40.1 µM). It also gave an MIC (Bacillus) of 512 µg/mL (≈ 1280 µM), an MIC (Cryptococcus neoformans) of 256 µg/mL (≈ 641 µM) and an MIC (Candida) of 512 µg/mL (≈ 1280 µM). The MIC (Aspergillus flavus) was 64 µg/mL (≈ 160 µM).

For `Cn1c(=O)n(CCOC(=O)CNC(=O)c2ccc(F)cc2)c(=O)c2ccccc21`, the MIC (Pseudomonas aeruginosa) was 256 µg/mL (≈ 641 µM), the MIC (Escherichia coli) was 64 µg/mL (≈ 160 µM) and the MIC (Staphylococcus aureus [1]) was 4 µg/mL (≈ 10 µM). The MIC (Bacillus subtilis) was 128 µg/mL (≈ 320 µM), the MIC (Staphylococcus aureus [2]) was 256 µg/mL (≈ 641 µM) and the MIC (Candida albicans) was 32 µg/mL (≈ 80.1 µM). For the same compound, the MIC (Bacillus) was 512 µg/mL (≈ 1280 µM), the MIC (Cryptococcus neoformans) was 16 µg/mL (≈ 40.1 µM) and the MIC (Candida) was 64 µg/mL (≈ 160 µM). The MIC (Aspergillus flavus) was 64 µg/mL (≈ 160 µM).

`Cn1c(=O)n(CCOC(=O)CNC(=O)c2ccccc2Cl)c(=O)c2ccccc21` was tested, and the MIC (Pseudomonas aeruginosa) was 128 µg/mL (≈ 308 µM), the MIC (Escherichia coli) was 512 µg/mL (≈ 1230 µM) and the MIC (Staphylococcus aureus [1]) was over 512 µg/mL. For the same compound, the MIC (Bacillus subtilis) was 64 µg/mL (≈ 154 µM), the MIC (Staphylococcus aureus [2]) was 512 µg/mL (≈ 1230 µM) and the MIC (Candida albicans) was 32 µg/mL (≈ 77 µM). It also gave an MIC (Bacillus) of 128 µg/mL (≈ 308 µM), an MIC (Cryptococcus neoformans) of 128 µg/mL (≈ 308 µM) and an MIC (Candida) of 64 µg/mL (≈ 154 µM). The MIC (Aspergillus flavus) was 128 µg/mL (≈ 308 µM).

`Cc1ccccc1C(=O)NCC(=O)OCCn1c(=O)c2ccccc2n(C)c1=O` showed an MIC (Pseudomonas aeruginosa) of 256 µg/mL (≈ 647 µM), an MIC (Escherichia coli) of 32 µg/mL (≈ 80.9 µM) and an MIC (Staphylococcus aureus [1]) of 32 µg/mL (≈ 80.9 µM). The MIC (Bacillus subtilis) was 64 µg/mL (≈ 162 µM), the MIC (Staphylococcus aureus [2]) was 512 µg/mL (≈ 1290 µM) and the MIC (Candida albicans) was 512 µg/mL (≈ 1290 µM). It also gave an MIC (Bacillus) of 32 µg/mL (≈ 80.9 µM), an MIC (Cryptococcus neoformans) of 16 µg/mL (≈ 40.5 µM) and an MIC (Candida) of 512 µg/mL (≈ 1290 µM). It also gave an MIC (Aspergillus flavus) of 128 µg/mL (≈ 324 µM).

`Cn1c(=O)n(CCOC(=O)CNC(=O)c2ccc([N+](=O)[O-])cc2)c(=O)c2ccccc21` gave an MIC (Pseudomonas aeruginosa) of 64 µg/mL (≈ 150 µM), an MIC (Escherichia coli) of 128 µg/mL (≈ 300 µM) and an MIC (Staphylococcus aureus [1]) of 8 µg/mL (≈ 18.8 µM). It also gave an MIC (Bacillus subtilis) of 512 µg/mL (≈ 1200 µM), an MIC (Staphylococcus aureus [2]) of 256 µg/mL (≈ 600 µM) and an MIC (Candida albicans) of 512 µg/mL (≈ 1200 µM). The MIC (Bacillus) was 128 µg/mL (≈ 300 µM) and the MIC (Candida) was 64 µg/mL (≈ 150 µM).

In the case of `COc1ccc(C(=O)NCC(=O)OCCn2c(=O)c3ccccc3n(C)c2=O)cc1`, the MIC (Pseudomonas aeruginosa) is reported as 128 µg/mL (≈ 311 µM), the MIC (Escherichia coli) is reported as 512 µg/mL (≈ 1240 µM) and the MIC (Staphylococcus aureus [1]) is reported as 256 µg/mL (≈ 622 µM). For the same compound, the MIC (Bacillus subtilis) was 4 µg/mL (≈ 9.72 µM), the MIC (Staphylococcus aureus [2]) was 512 µg/mL (≈ 1240 µM) and the MIC (Candida albicans) was 32 µg/mL (≈ 77.8 µM). It also gave an MIC (Bacillus) of 512 µg/mL (≈ 1240 µM), an MIC (Cryptococcus neoformans) of 32 µg/mL (≈ 77.8 µM) and an MIC (Candida) of 512 µg/mL (≈ 1240 µM). The MIC (Aspergillus flavus) was 128 µg/mL (≈ 311 µM).

`Cc1ccc(C(=O)NCC(=O)OCCn2c(=O)c3ccccc3n(C)c2=O)cc1` was tested, and the MIC (Pseudomonas aeruginosa) was 128 µg/mL (≈ 324 µM), the MIC (Escherichia coli) was 512 µg/mL (≈ 1290 µM) and the MIC (Staphylococcus aureus [1]) was 512 µg/mL (≈ 1290 µM). The MIC (Bacillus subtilis) was 64 µg/mL (≈ 162 µM), the MIC (Staphylococcus aureus [2]) was 512 µg/mL (≈ 1290 µM) and the MIC (Candida albicans) was 32 µg/mL (≈ 80.9 µM). It also gave an MIC (Bacillus) of 32 µg/mL (≈ 80.9 µM), an MIC (Cryptococcus neoformans) of 16 µg/mL (≈ 40.5 µM) and an MIC (Candida) of 512 µg/mL (≈ 1290 µM). For the same compound, the MIC (Aspergillus flavus) was 64 µg/mL (≈ 162 µM).

For `Cn1c(=O)n(CCOC(=O)CNC(=O)c2cccc([N+](=O)[O-])c2)c(=O)c2ccccc21`, the MIC (Pseudomonas aeruginosa) was 512 µg/mL (≈ 1200 µM), the MIC (Escherichia coli) was 16 µg/mL (≈ 37.5 µM) and the MIC (Staphylococcus aureus [1]) was 4 µg/mL (≈ 9.38 µM). For the same compound, the MIC (Bacillus subtilis) was 256 µg/mL (≈ 600 µM), the MIC (Staphylococcus aureus [2]) was 128 µg/mL (≈ 300 µM) and the MIC (Candida albicans) was 64 µg/mL (≈ 150 µM). The MIC (Bacillus) was 128 µg/mL (≈ 300 µM), the MIC (Cryptococcus neoformans) was 128 µg/mL (≈ 300 µM) and the MIC (Candida) was 16 µg/mL (≈ 37.5 µM). The MIC (Aspergillus flavus) was 64 µg/mL (≈ 150 µM).

For `Cn1c(=O)n(CCOC(=O)CNC(=O)c2ccc(Cl)cc2)c(=O)c2ccccc21`, the MIC (Pseudomonas aeruginosa) was 256 µg/mL (≈ 616 µM), the MIC (Escherichia coli) was 256 µg/mL (≈ 616 µM) and the MIC (Staphylococcus aureus [1]) was 512 µg/mL (≈ 1230 µM). The MIC (Bacillus subtilis) was 128 µg/mL (≈ 308 µM), the MIC (Staphylococcus aureus [2]) was 128 µg/mL (≈ 308 µM) and the MIC (Candida albicans) was 64 µg/mL (≈ 154 µM). It also gave an MIC (Bacillus) of 256 µg/mL (≈ 616 µM), an MIC (Cryptococcus neoformans) of 32 µg/mL (≈ 77 µM) and an MIC (Candida) of 512 µg/mL (≈ 1230 µM). The MIC (Aspergillus flavus) was 32 µg/mL (≈ 77 µM).

`Cn1c(=O)n(CCOC(=O)CNC(=O)c2ccco2)c(=O)c2ccccc21` gave an MIC (Pseudomonas aeruginosa) of 128 µg/mL (≈ 345 µM), an MIC (Escherichia coli) of 4 µg/mL (≈ 10.8 µM) and an MIC (Staphylococcus aureus [1]) of over 512 µg/mL. For the same compound, the MIC (Bacillus subtilis) was 4 µg/mL (≈ 10.8 µM), the MIC (Staphylococcus aureus [2]) was 256 µg/mL (≈ 689 µM) and the MIC (Candida albicans) was 32 µg/mL (≈ 86.2 µM). It also gave an MIC (Bacillus) of 128 µg/mL (≈ 345 µM), an MIC (Cryptococcus neoformans) of 128 µg/mL (≈ 345 µM) and an MIC (Candida) of 64 µg/mL (≈ 172 µM). The MIC (Aspergillus flavus) was 64 µg/mL (≈ 172 µM).

`Cn1c(=O)n(CCOC(=O)CNC(=O)c2cccs2)c(=O)c2ccccc21` gave an MIC (Pseudomonas aeruginosa) of 64 µg/mL (≈ 165 µM), an MIC (Escherichia coli) of 64 µg/mL (≈ 165 µM) and an MIC (Staphylococcus aureus [1]) of 32 µg/mL (≈ 82.6 µM). It also gave an MIC (Bacillus subtilis) of 32 µg/mL (≈ 82.6 µM), an MIC (Staphylococcus aureus [2]) of 512 µg/mL (≈ 1320 µM) and an MIC (Candida albicans) of 512 µg/mL (≈ 1320 µM). For the same compound, the MIC (Bacillus) was 64 µg/mL (≈ 165 µM), the MIC (Cryptococcus neoformans) was 256 µg/mL (≈ 661 µM) and the MIC (Candida) was 512 µg/mL (≈ 1320 µM). It also gave an MIC (Aspergillus flavus) of 64 µg/mL (≈ 165 µM).

`Cn1c(=O)n(CCOC(=O)CNC(=O)/C=C\c2ccccc2)c(=O)c2ccccc21` gave an MIC (Pseudomonas aeruginosa) of over 512 µg/mL, an MIC (Escherichia coli) of 16 µg/mL (≈ 39.3 µM) and an MIC (Staphylococcus aureus [1]) of 4 µg/mL (≈ 9.82 µM). For the same compound, the MIC (Bacillus subtilis) was 4 µg/mL (≈ 9.82 µM), the MIC (Staphylococcus aureus [2]) was 128 µg/mL (≈ 314 µM) and the MIC (Candida albicans) was 512 µg/mL (≈ 1260 µM). It also gave an MIC (Bacillus) of 256 µg/mL (≈ 628 µM), an MIC (Cryptococcus neoformans) of 8 µg/mL (≈ 19.6 µM) and an MIC (Candida) of 512 µg/mL (≈ 1260 µM). It also gave an MIC (Aspergillus flavus) of 32 µg/mL (≈ 78.5 µM).

For `NC(=O)OC[C@H](O)[C@@H](O)[C@H](N)C(=O)N[C@H](C(=O)O)[C@H]1O[C@@H](n2cc(C(=O)O)c(=O)[nH]c2=O)[C@H](O)[C@@H]1O`, the MIC (Candida albicans) was 32 µg/mL (≈ 61.4 µM), the MIC (Cryptococcus neoformans) was 0.0312 µg/mL (≈ 0.0599 µM) and the MIC (Saccharomyces cerevisiae) was 16 µg/mL (≈ 30.7 µM). The MIC (Candida) was 8 µg/mL (≈ 15.3 µM) and the MIC (Aspergillus flavus) was 32 µg/mL (≈ 61.4 µM).

With `Cn1c(=O)n(CCOC(=O)CNC(=O)c2ccccc2)c(=O)c2ccccc21` the MIC (Pseudomonas aeruginosa) was over 512 µg/mL, the MIC (Escherichia coli) was 128 µg/mL (≈ 336 µM) and the MIC (Staphylococcus aureus [1]) was over 512 µg/mL. It also gave an MIC (Bacillus subtilis) of 512 µg/mL (≈ 1340 µM), an MIC (Staphylococcus aureus [2]) of 256 µg/mL (≈ 671 µM) and an MIC (Candida albicans) of 512 µg/mL (≈ 1340 µM). It also gave an MIC (Bacillus) of over 512 µg/mL, an MIC (Cryptococcus neoformans) of 32 µg/mL (≈ 83.9 µM) and an MIC (Candida) of over 512 µg/mL. It also gave an MIC (Aspergillus flavus) of 64 µg/mL (≈ 168 µM).

`OC(Cn1cncn1)(Cn1cncn1)c1ccc(F)cc1F` [FLUCONAZOLE] was tested, and the MIC (Candida albicans) was 16 µg/mL (≈ 52.2 µM), the MIC (Cryptococcus neoformans) was 0.0312 µg/mL (≈ 0.102 µM) and the MIC (Saccharomyces cerevisiae) was over 512 µg/mL. The MIC (Candida) was 8 µg/mL (≈ 26.1 µM) and the MIC (Aspergillus flavus) was 64 µg/mL (≈ 209 µM).

For `CN[C@@H]1[C@H](O[C@H]2[C@H](O[C@H]3[C@H](O)[C@@H](O)[C@H](N=C(N)N)[C@@H](O)[C@@H]3N=C(N)N)O[C@@H](C)[C@]2(O)C=O)O[C@@H](CO)[C@H](O)[C@H]1O` [STREPTOMYCIN], the MIC (Pseudomonas aeruginosa) was 64 µg/mL (≈ 110 µM), the MIC (Escherichia coli) was 64 µg/mL (≈ 110 µM) and the MIC (Staphylococcus aureus [1]) was over 512 µg/mL. For the same compound, the MIC (Bacillus subtilis) was 32 µg/mL (≈ 55 µM), the MIC (Staphylococcus aureus [2]) was 32 µg/mL (≈ 55 µM) and the MIC (Bacillus) was 16 µg/mL (≈ 27.5 µM).

From ChEMBL document CHEMBL2424658, “Design, synthesis, and evaluation of novel 1-methyl-3-substituted quinazoline-2,4-dione derivatives as antimicrobial agents” (2013)
